Source: PubChem BioAssay (NCI)
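Dose response: 5 concentrations. Exposure: 48 h. Format: 96-well plates. Endpoint: linear interpolation; highest concentration if not reached. Abbreviation: GI50, concentration required for 50% inhibition of growth. TGI marks complete inhibition of growth.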

How the values were obtained:
Test in all cases: growth of human tumour cells (NCI), 48 h
HOP-62 NSCLC = tested on: HOP-62 NSCLC
MDA-MB-435 = tested on: MDA-MB-435
K-562 leukemia = tested on: K-562 leukemia
UACC-257 melanoma = tested on: UACC-257 melanoma
SR leukemia = tested on: SR leukemia
SK-OV-3 ovarian = tested on: SK-OV-3 ovarian
NCI-H23 lung = tested on: NCI-H23 lung
DU-145 prostate = tested on: DU-145 prostate
LOX IMVI melanoma = tested on: LOX IMVI melanoma
KM12 colon = tested on: KM12 colon
SK-MEL-5 melanoma = tested on: SK-MEL-5 melanoma
OVCAR-3 ovarian = tested on: OVCAR-3 ovarian
HCT-116 colon = tested on: HCT-116 colon
SK-MEL-2 melanoma = tested on: SK-MEL-2 melanoma
SF-268 CNS = tested on: SF-268 CNS
NCI-H522 lung = tested on: NCI-H522 lung
SF-295 CNS = tested on: SF-295 CNS
HCT-15 colon = tested on: HCT-15 colon
IGROV1 ovarian = tested on: IGROV1 ovarian
BT-549 breast = tested on: BT-549 breast
M14 melanoma = tested on: M14 melanoma
SN12C renal = tested on: SN12C renal
OVCAR-8 ovarian = tested on: OVCAR-8 ovarian
NCI-H460 lung = tested on: NCI-H460 lung
NCI/ADR-RES ovarian = tested on: NCI/ADR-RES ovarian
HL-60(TB) leukemia = tested on: HL-60(TB) leukemia
SK-MEL-28 melanoma = tested on: SK-MEL-28 melanoma
MDA-MB-231 breast = tested on: MDA-MB-231 breast
CAKI-1 renal = tested on: CAKI-1 renal
U251 CNS = tested on: U251 CNS
TK-10 renal = tested on: TK-10 renal
HOP-92 NSCLC = tested on: HOP-92 NSCLC
PC-3 prostate = tested on: PC-3 prostate
HCC-2998 colon = tested on: HCC-2998 colon
A549 NSCLC = tested on: A549 NSCLC
786-0 renal = tested on: 786-0 renal
ACHN renal = tested on: ACHN renal
OVCAR-5 ovarian = tested on: OVCAR-5 ovarian
RPMI-8226 leukemia = tested on: RPMI-8226 leukemia
RXF 393 renal = tested on: RXF 393 renal
COLO 205 colon = tested on: COLO 205 colon
UACC-62 melanoma = tested on: UACC-62 melanoma
OVCAR-4 ovarian = tested on: OVCAR-4 ovarian
HS 578T breast = tested on: HS 578T breast
SW-620 colon = tested on: SW-620 colon
MCF7 breast = tested on: MCF7 breast
T-47D breast = tested on: T-47D breast
SNB-19 CNS = tested on: SNB-19 CNS
EKVX NSCLC = tested on: EKVX NSCLC
UO-31 renal = tested on: UO-31 renal
SF-539 CNS = tested on: SF-539 CNS

Oc1ccc(Nc2nc3ccccc3c3occc23)cc1
GI50 (HOP-62 NSCLC): 16.9 µM | TGI (HOP-62 NSCLC): > 100 µM | GI50 (MDA-MB-435): 9.77 µM | TGI (MDA-MB-435): 21.6 µM | GI50 (K-562 leukemia): 9.84 µM | TGI (K-562 leukemia): > 100 µM | GI50 (UACC-257 melanoma): 12.9 µM | TGI (UACC-257 melanoma): 30.7 µM | GI50 (SR leukemia): 31.4 µM | TGI (SR leukemia): > 100 µM | GI50 (SK-OV-3 ovarian): 16.2 µM | TGI (SK-OV-3 ovarian): 33.7 µM | GI50 (NCI-H23 lung): 12.4 µM | TGI (NCI-H23 lung): 28.5 µM | GI50 (DU-145 prostate): 11.3 µM | TGI (DU-145 prostate): 23.4 µM | GI50 (LOX IMVI melanoma): 2.21 µM | TGI (LOX IMVI melanoma): 15.9 µM | GI50 (KM12 colon): 15.5 µM | TGI (KM12 colon): 38.6 µM | GI50 (SK-MEL-5 melanoma): 8.15 µM | TGI (SK-MEL-5 melanoma): 21.9 µM | GI50 (OVCAR-3 ovarian): 5.8 µM | TGI (OVCAR-3 ovarian): 22.8 µM | GI50 (HCT-116 colon): 16.3 µM | TGI (HCT-116 colon): 34.5 µM | GI50 (SK-MEL-2 melanoma): 18.2 µM | TGI (SK-MEL-2 melanoma): 42.1 µM | GI50 (SF-268 CNS): 11.4 µM | TGI (SF-268 CNS): 31.6 µM | GI50 (NCI-H522 lung): 9.03 µM | TGI (NCI-H522 lung): 26.1 µM | GI50 (SF-295 CNS): 11 µM | TGI (SF-295 CNS): 23.9 µM | GI50 (HCT-15 colon): 14.3 µM | TGI (HCT-15 colon): 40.5 µM | GI50 (IGROV1 ovarian): 2.93 µM | TGI (IGROV1 ovarian): 23.5 µM | GI50 (BT-549 breast): 6.72 µM | TGI (BT-549 breast): 34.6 µM | GI50 (M14 melanoma): 14.2 µM | TGI (M14 melanoma): 34.6 µM | GI50 (SN12C renal): 12.2 µM | TGI (SN12C renal): 26.5 µM | GI50 (OVCAR-8 ovarian): 17.1 µM | TGI (OVCAR-8 ovarian): 58.8 µM | GI50 (NCI-H460 lung): 12.6 µM | TGI (NCI-H460 lung): 36.1 µM | GI50 (NCI/ADR-RES ovarian): 16.2 µM | TGI (NCI/ADR-RES ovarian): 31.5 µM | GI50 (HL-60(TB) leukemia): 10.2 µM | TGI (HL-60(TB) leukemia): > 100 µM | GI50 (SK-MEL-28 melanoma): 17.6 µM | TGI (SK-MEL-28 melanoma): 45.6 µM | GI50 (MDA-MB-231 breast): 5.34 µM | TGI (MDA-MB-231 breast): 25.7 µM | GI50 (CAKI-1 renal): 12.1 µM | TGI (CAKI-1 renal): 28.1 µM | GI50 (U251 CNS): 11.3 µM | TGI (U251 CNS): 26.1 µM | GI50 (TK-10 renal): 13 µM | TGI (TK-10 renal): 27.1 µM | GI50 (HOP-92 NSCLC): 13.9 µM | TGI (HOP-92 NSCLC): 32 µM | GI50 (PC-3 prostate): 16.1 µM | TGI (PC-3 prostate): 66.4 µM | GI50 (HCC-2998 colon): 11.4 µM | TGI (HCC-2998 colon): 23.7 µM | GI50 (A549 NSCLC): 14.4 µM | TGI (A549 NSCLC): 52.1 µM | GI50 (786-0 renal): 12.2 µM | TGI (786-0 renal): 26.8 µM | GI50 (ACHN renal): 4.54 µM | TGI (ACHN renal): 29.4 µM | GI50 (OVCAR-5 ovarian): 15.6 µM | TGI (OVCAR-5 ovarian): 38.3 µM | GI50 (RPMI-8226 leukemia): 7.63 µM | TGI (RPMI-8226 leukemia): 72.6 µM | GI50 (RXF 393 renal): 11.3 µM | TGI (RXF 393 renal): 41.3 µM | GI50 (COLO 205 colon): 18.9 µM | TGI (COLO 205 colon): 50.1 µM | GI50 (UACC-62 melanoma): 11.7 µM | TGI (UACC-62 melanoma): 23.9 µM | GI50 (OVCAR-4 ovarian): 12.3 µM | TGI (OVCAR-4 ovarian): 98.9 µM | GI50 (HS 578T breast): 16.5 µM | TGI (HS 578T breast): 45.4 µM | GI50 (SW-620 colon): 19.7 µM | TGI (SW-620 colon): 50.5 µM | GI50 (MCF7 breast): 11.5 µM | TGI (MCF7 breast): 44.4 µM | GI50 (T-47D breast): 17 µM | TGI (T-47D breast): 51.2 µM | GI50 (SNB-19 CNS): 17.2 µM | TGI (SNB-19 CNS): 50.5 µM | GI50 (EKVX NSCLC): 14.5 µM | TGI (EKVX NSCLC): 39.2 µM | GI50 (UO-31 renal): 10.1 µM | TGI (UO-31 renal): 33.3 µM | GI50 (SF-539 CNS): 16.5 µM | TGI (SF-539 CNS): 33.7 µM
